The text below walks through data of patent US8518973B2, “Compounds having 4-pyridylalkylthio group as a substituent” (Santen Pharmaceutical Co., Ltd., priority 2003, dated 2013).

The term inhibition denotes how much of the control response was suppressed.

This assay concerns VEGF-induced HUVEC growth. Briefly: VEGF-induced HUVEC growth reaction evaluation system (cell growth inhibitory action test). It counts as cell-based. The note with it: Homo sapiens, 72 h, 20 μg/ml test compound solution added 5 μl per well (100 μl), VEGF solution 400 ng/ml 5 μl per well, three days, absorbance at 450 nm, read-out: Cell growth inhibition rate (%). On the procedure:
Cell growth inhibitory action tests were carried out using a VEGF-induced HUVEC growth reaction evaluation system (HUVEC stands for human umbilical vein endothelial cells), which is one of widely-used methods of evaluating in vitro angiogenesis inhibitory effects of drugs.
As one of widely-used methods of evaluating angiogenesis inhibitory effects of drugs, a cell growth inhibitory action test using a VEGF-induced HUVEC growth reaction evaluation system was reported in Cancer Res., 59, 99-106(1999). According to the method described in the above-mentioned literature, cell growth inhibitory action tests of the present compounds were carried out, their cell growth inhibition rates were calculated, and angiogenesis inhibitory effects of the present compounds were evaluated using the obtained rates as indexes.
Each test compound was dissolved in dimethyl sulfoxide (hereinafter abbreviated as “DMSO”), and the obtained solution was diluted with commercially available phosphoric acid buffer solution (hereinafter abbreviated as “PBS”) to prepare a 20 μg/ml test compound solution.
HUVEC was suspended in a 0.5% fetal bovine serum (hereinafter abbreviated as “FBS”)-containing F12K medium to prepare a 2×10^4 cells/ml HUVEC suspension.
VEGF was dissolved in 0.1% bovine serum albumin-containing PBS, and the obtained solution was diluted with the 0.5% FBS-containing F12K medium to prepare a 400 ng/ml VEGF solution.
• 1) The HUVEC suspension was inoculated in each amount of 100 μl into each well of a 96-well plate coated with I type collagen (2×10^3 cells per well). • 2) One day after inoculation, the test compound solution was added in an amount of 5 μl per well. • 3) One hour after adding the test compound solution, the VEGF solution was added in an amount of 5 μl per well. • 4) Three days after adding the VEGF solution, cell counting kit-8(Dojin Chemical Co., Ltd.) was added in an amount of 10 μl per well. • 5) After three hours, the above-mentioned plate was attached to an absorptiometer (multi label counter ARVO), and absorbance at 450 nm of each well suspension (hereinafter referred to as “test compound suspension”) was measured. • 6) A test was carried out in the same manner as in 1) to 5) except that 1.0% DMSO was used instead of the test compound solution.
Incubation was carried out under conditions of 37° C., 5% carbon dioxide and 95% air in an incubator throughout the above-mentioned test steps.
Cell growth inhibition rates, which are indexes of angiogenesis inhibitory effects, were calculated by the following calculation equation.
On to `O=C(Nc1cc(F)cc(C(F)(F)F)c1)c1cccnc1SCc1ccncc1` [1-83, N-(3-Fluoro-5-trifluoromethylphenyl)-2-(4-pyridylmethylthio)pyridine-3-carboxamide], for which the inhibition at 20 µg/mL (stock) came out at 100%.
The result for `Cc1cc(C)cc(NC(=O)c2cccnc2SCc2ccnc(F)c2)c1` [1-213, N-(3,5-Dimethylphenyl)-2-(2-fluoropyridin-4-ylmethylthio)pyridine-3-carboxamide] reads 100%.
For the compound `Cc1cc(NC(=O)c2cccnc2SCc2cc[n+]([O-])cc2)ccc1F` [4-7, N-(4-Fluoro-3-methylphenyl)-2-(1-oxopyridin-4-ylmethylthio)pyridine-3-carboxamide], the inhibition at 20 µg/mL (stock) was found to be 100%.
Consider `CC(C)c1cccc(NC(=O)c2ccccc2SCc2ccncc2)c1` [1-92, N-(3-Isopropylphenyl)-2-(4-pyridylmethylthio)benzamide], for which the inhibition at 20 µg/mL (stock) amounted to 100%.
As for `Cc1cc(NC(=O)c2ccccc2SCc2ccncc2)ccc1Br` [1-111, N-(4-Bromo-3-methylphenyl)-2-(4-pyridylmethylthio)benzamide], the inhibition at 20 µg/mL (stock) is 100%.
Regarding `Cc1cc(C)cc(NC(=O)c2cccnc2SCc2ccncc2Cl)c1` [1-228, 2-(3-Chloropyridin-4-ylmethylthio)-N-(3,5-dimethylphenyl)pyridine-3-carboxamide], the inhibition at 20 µg/mL (stock) came to 100%.
To `COc1cc(OC)c(NC(=O)c2ccccc2SCc2ccncc2)cc1Cl` [1-102, N-(5-Chloro-2,4-dimethoxyphenl)-2-(4-pyridylmethylthio)benzamide] belongs 55%; to `Cc1cccc(NC(=O)c2cscc2SCc2ccncc2)c1` [1-292, N-(3-Methylphenyl) 4 (4-pyridylmethylthio)thiophene-3 carboxamide], 100%; to `O=C(Nc1cccc(Cl)c1)c1sccc1SCc1ccncc1` [1-249, N-(3 Chlorophenyl)3-(4-pyridylmethylthio)thiophene-2-carboxamide], 100%.
The result for `CSc1cc(CSc2ncccc2C(=O)Nc2cc(C)cc(C)c2)ccn1` [1-231, N-(3,5-Dimethylphenyl)-2-(2-methylthiopyridin-4-ylmethylthio)pyridine-3-carboxamide] reads 100%; that for `CC(C)(C)c1ccc(NC(=O)c2sccc2SCc2ccncc2)cc1` [1-256, N-(4-tert-Butylphenyl)-3-(4-pyridylmethylthio)thiophene-2-carboxamide], 100%; that for `Cc1cccc(NC(=O)c2ccsc2SCc2ccncc2)c1` [1-285, N-(3-Methylphenyl)-2-(4-pyridylmethylthio)thiophene-3-carboxamide], 100%.
To `CC(C)Oc1ccc(NC(=O)c2cccnc2SCc2ccncc2)cc1` [1-55, N-(4-Isopropoxyphenyl)-2-(4-pyridylmethylthio)pyridine-3-carboxamide] belongs 100%; to `Cc1ccc(NC(=O)c2sccc2SCc2ccncc2)cc1C` [1-253, N-(3,4-Dimethylphenyl)-3-(4-pyridylmethylthio)thiophene-2-carboxamide], 100%; to `CCCc1ccc(NC(=O)c2cccnc2SCc2ccncc2)cc1` [1-49, N-(4-n-Propylphenyl)-2-(4-pyridylmethylthio)pyridine-3-carboxamide], 100%.
On to `O=C(Nc1ccc(OC(F)(F)F)cc1)c1cccnc1SCc1ccnc(F)c1` [1-214, 2-(2-Fluoropyridin-4-ylmethylthio)-N-(4-trifluoromethoxyphenyl)pyridine-3-carboxamide], for which the inhibition at 20 µg/mL (stock) was found to be 92%.
To `O=C(Nc1ccc2c(c1)CCC2)c1ccsc1SCc1ccncc1` [1-287, N-(5-Indanyl)-2-(4-pyridylmethylthio)thiophene-3-carboxamide] belongs 95%; to `CCCc1ccc(NC(=O)c2sccc2SCc2ccncc2)cc1` [1-270, N-(4-n-Propylphenyl)-3-(4-pyridylmethylthio)thiophene-2-carboxamide], 99%; to `Cc1cc(C)cc(NC(=O)c2cccnc2SCc2ccnc(C(N)=O)c2)c1` [8-1, 2-(2-Carbamoylpyridin-4-ylmethylthio)-N-(3,5-dimethylphenyl)pyridine-3-carboxamide], 100%.
To `O=C(Nc1ccc(Cl)c(C(F)(F)F)c1)c1cccnc1SCc1ccncc1` [1-74, N-(4-Chloro-3-trifluoromethylphenyl)-2-(4-pyridylmethylthio)pyridine-3-carboxamide] belongs 100%; to `O=C(Nc1ccc(F)c(C(F)(F)F)c1)c1cccnc1SCc1ccncc1` [1-77, N-(4-Fluoro-3-trifluoromethylphenyl)-2-(4-pyridylmethylthio)pyridine-3-carboxamide], 100%.
For the compound `O=C(Nc1ccc2c(c1)CCC2)c1cccnc1SCc1ccnc(Cl)c1` [1-216, 2-(2-Chloropyridin-4-ylmethylthio)-N-(5-indanyl)pyridine-3-carboxamide], the inhibition at 20 µg/mL (stock) was 100%.
The result for `O=C(Nc1cc2ccccc2cn1)c1ccccc1SCc1ccncc1` [1-209, N-(3-Isoquinolyl)-2-(4-pyridylmethylthio)benzamide] reads 99%.
To `CCCCc1ccc(NC(=O)c2cccnc2SCc2ccncc2)cc1` [1-50, N-(4-n-Butylphenyl)-2-(4-pyridylmethylthio)pyridine-3-carboxamide] belongs 94%; to `Cc1cc(CSc2ncccc2C(=O)Nc2ccc(OC(F)(F)F)cc2)ccn1` [1-308, 2-(2-Methylpyridin-4-ylmethylthio)-N-(4-trifluoromethoxyphenyl)pyridine-3-carboxamide], 92%.
`O=C(Nc1ccc2c(c1)CCC2)c1cccnc1SCc1ccnc(F)c1` [1-215, 2-(2-Fluoropyridin-4-ylmethylthio)-N-(5-indanyl)pyridine-3-carboxamide]: the inhibition at 20 µg/mL (stock) turned out to be 100%.
The result for `CC(C)Oc1ccc(NC(=O)c2sccc2SCc2ccncc2)cc1` [1-246, N-(4-Isopropoxyphenyl)-3-(4-pyridylmethylthio)thiophene-2-carboxamide] reads 76%; that for `Cc1cc(C)cc(NC(=O)c2ccsc2SCc2ccncc2)c1` [1-291, N-(3,5-Dimethylphenyl)-2-(4-pyridylmethylthio)thiophene-3-carboxamide], 100%; that for `Cc1cc(C)cc(NC(=O)c2cccnc2SCc2ccnc(Cl)c2)c1` [1-226, 2-(2-Chloropyridin-4-ylmethylthio)-N-(3,5-dimethylphenyl)pyridine-3-carboxamide], 100%.
The result for `O=C(Nc1ccc(C(F)(F)F)cc1)c1ccsc1SCc1ccncc1` [1-290, 2-(4-Pyridylmethylthio)-N-(4-trifluoromethylphenyl)thiophene-3-carboxamide] reads 100%; that for `Cc1cc(NC(=O)c2cccnc2SCc2ccncc2)ccc1Cl` [1-79, N-(4-Chloro-3-methylphenyl)-2-(4-pyridylmethylthio)pyridine-3-carboxamide], 100%; that for `O=C(Nc1ccc2c(c1)CCC2)c1sccc1SCc1ccncc1` [1-283, N-(5-Indanyl)-3-(4-pyridylmethylthio)thiophene-2-carboxamide], 100%.
To `CC(C)(C)c1ccc(NC(=O)c2cccnc2SCc2cc[n+]([O-])cc2)cc1` [4-10, N-(4-tert-Butylphenyl)-2-(1-oxopyridin-4-ylmethylthio)pyridine-3-carboxamide] belongs 100%.
On to `O=C(Nc1cccc(Cl)c1)c1ccccc1SCc1ccncc1` [1-90, N-(3-Chlorophenyl)-2-(4-pyridylmethylthio)benzamide], for which the inhibition at 20 µg/mL (stock) amounted to 100%.
The result for `O=C(Nc1ccc(Cl)cc1F)c1cccnc1SCc1ccncc1` [1-69, N-(4-Chloro-2-fluorophenyl)-2-(4-pyridylmethylthio)pyridine-3-carboxamide] reads 95%.
To `O=C(Nc1ccc(OC(F)(F)F)cc1)c1sccc1SCc1ccncc1` [1-273, 3-(4-Pyridylmethylthio)-N-(4-trifluoromethoxyphenyl)thiophene-2-carboxamide] belongs 100%.
To `COCCNC(=O)c1cc(CSc2ncccc2C(=O)Nc2cc(C)cc(C)c2)ccn1` [7-4, N-(3,5-Dimethylphenyl)-2-[2-(2-methoxyethylaminocarbonyl)pyridin-4-ylmethylthio]pyridine-3-carboxamide] belongs 100%.
